Results published in ChEMBL document CHEMBL2440076, “New triarylpyrazoles as broad-spectrum anticancer agents: design, synthesis, and biological evaluation” (Eur J Med Chem, 2013).

What was measured:
Format in all cases: functional
OVCAR-8 = assay: Growth inhibition of human OVCAR8 cells assessed as cell growth at 5X10'-7 M after 48 hrs by sulforhodamine B assay; details: OVCAR-8, 48 h, read-out: Activity
OVCAR-4 [1] = assay: Growth inhibition of human OVCAR4 cells assessed as cell growth at 5X10'-5 M after 48 hrs by sulforhodamine B assay; details: OVCAR-4, 48 h, read-out: Activity
BT-549 [2] = assay: Growth inhibition of human BT549 cells assessed as cell growth at 5X10'-5 M after 48 hrs by sulforhodamine B assay; details: BT-549, 48 h, read-out: Activity
UACC-62 [3] = assay: Growth inhibition of human UACC62 cells assessed as cell growth at 5X10'-8 M after 48 hrs by sulforhodamine B assay; details: UACC-62, 48 h, read-out: Activity
NCI-H226 = assay: Growth inhibition of human NCI-H226 cells assessed as cell growth at 5X10'-5 M after 48 hrs by sulforhodamine B assay; details: NCI-H226, 48 h, read-out: Activity
SF-295 [4] = assay: Growth inhibition of human SF295 cells assessed as cell growth at 5X10'-9 M after 48 hrs by sulforhodamine B assay; details: SF-295, 48 h, read-out: Activity
UACC-62 [5] = assay: Growth inhibition of human UACC62 cells assessed as cell growth at 5X10'-7 M after 48 hrs by sulforhodamine B assay; details: UACC-62, 48 h, read-out: Activity
MDA-MB-435 [6] = assay: Growth inhibition of human MDA-MB-435 cells assessed as cell growth at 5X10'-7 M after 48 hrs by sulforhodamine B assay; details: MDA-MB-435, 48 h, read-out: Activity
NCI-H460 = assay: Growth inhibition of human NCI-H460 cells assessed as cell growth at 5X10'-5 M after 48 hrs by sulforhodamine B assay; details: NCI-H460, 48 h, read-out: Activity
SK-MEL-2 [7] = assay: Growth inhibition of human SK-MEL-2 cells assessed as cell growth at 5X10'-5 M after 48 hrs by sulforhodamine B assay; details: SK-MEL-2, 48 h, read-out: Activity
NCI-H23 = assay: Growth inhibition of human NCI-H23 cells assessed as cell growth at 5X10'-7 M after 48 hrs by sulforhodamine B assay; details: NCI-H23, 48 h, read-out: Activity
HCT-116 [8] = assay: Growth inhibition of human HCT116 cells assessed as cell growth at 5X10'-7 M after 48 hrs by sulforhodamine B assay; details: HCT-116, 48 h, read-out: Activity
SK-MEL-5 = assay: Growth inhibition of human SK-MEL-5 cells assessed as cell growth at 5X10'-5 M after 48 hrs by sulforhodamine B assay; details: SK-MEL-5, 48 h, read-out: Activity
OVCAR-5 = assay: Growth inhibition of human OVCAR5 cells assessed as cell growth at 5X10'-6 M after 48 hrs by sulforhodamine B assay; details: OVCAR-5, 48 h, read-out: Activity
HCT-116 [9] = assay: Growth inhibition of human HCT116 cells assessed as cell growth at 5X10'-6 M after 48 hrs by sulforhodamine B assay; details: HCT-116, 48 h, read-out: Activity
PC-3 [10] = assay: Growth inhibition of human PC3 cells assessed as cell growth at 5X10'-8 M after 48 hrs by sulforhodamine B assay; details: PC-3, 48 h, read-out: Activity
CAKI-1 = assay: Growth inhibition of human CAKI-1 cells assessed as cell growth at 5X10'-7 M after 48 hrs by sulforhodamine B assay; details: CAKI-1, 48 h, read-out: Activity
OVCAR-4 [11] = assay: Growth inhibition of human OVCAR4 cells assessed as cell growth at 5X10'-9 M after 48 hrs by sulforhodamine B assay; details: OVCAR-4, 48 h, read-out: Activity
MDA-MB-435 [12] = assay: Growth inhibition of human MDA-MB-435 cells assessed as cell growth at 5X10'-5 M after 48 hrs by sulforhodamine B assay; details: MDA-MB-435, 48 h, read-out: Activity
T47D = assay: Growth inhibition of human T47D cells assessed as cell growth at 5X10'-7 M after 48 hrs by sulforhodamine B assay; details: read-out: Activity
SR = assay: Growth inhibition of human SR cells assessed as cell growth at 5X10'-5 M after 48 hrs by sulforhodamine B assay; details: read-out: Activity
ACHN = assay: Growth inhibition of human ACHN cells assessed as cell growth at 5X10'-8 M after 48 hrs by sulforhodamine B assay; details: read-out: Activity
M14 = assay: Growth inhibition of human M14 cells assessed as cell growth at 5X10'-5 M after 48 hrs by sulforhodamine B assay; details: M14, 48 h, read-out: Activity
SK-MEL-2 [13] = assay: Growth inhibition of human SK-MEL-2 cells assessed as cell growth at 5X10'-7 M after 48 hrs by sulforhodamine B assay; details: SK-MEL-2, 48 h, read-out: Activity
HOP-62 = assay: Growth inhibition of human HOP62 cells assessed as cell growth at 5X10'-7 M after 48 hrs by sulforhodamine B assay; details: HOP-62, 48 h, read-out: Activity
K562 = assay: Growth inhibition of human K562 cells assessed as cell growth at 5X10'-6 M after 48 hrs by sulforhodamine B assay; details: K562, 48 h, read-out: Activity
[14] = Growth inhibition of human Hs 578T cells assessed as cell growth at 5X10'-9 M after 48 hrs by sulforhodamine B assay; details: read-out: Activity
A498 [15] = assay: Growth inhibition of human A498 cells assessed as cell growth at 5X10'-5 M after 48 hrs by sulforhodamine B assay; details: A498, 48 h, read-out: Activity
PC-3 [16] = assay: Growth inhibition of human PC3 cells assessed as cell growth at 5X10'-9 M after 48 hrs by sulforhodamine B assay; details: PC-3, 48 h, read-out: Activity
BT-549 [17] = assay: Growth inhibition of human BT549 cells assessed as cell growth at 5X10'-7 M after 48 hrs by sulforhodamine B assay; details: BT-549, 48 h, read-out: Activity
SNB-75 = assay: Growth inhibition of human SNB75 cells assessed as cell growth at 5X10'-5 M after 48 hrs by sulforhodamine B assay; details: SNB-75, 48 h, read-out: Activity
SK-OV-3 = assay: Growth inhibition of human SKOV3 cells assessed as cell growth at 5X10'-6 M after 48 hrs by sulforhodamine B assay; details: SK-OV-3, 48 h, read-out: Activity
A498 [18] = assay: Growth inhibition of human A498 cells assessed as cell growth at 5X10'-6 M after 48 hrs by sulforhodamine B assay; details: A498, 48 h, read-out: Activity
DU-145 = assay: Growth inhibition of human DU145 cells assessed as cell growth at 5X10'-5 M after 48 hrs by sulforhodamine B assay; details: DU-145, 48 h, read-out: Activity
NCI-H522 = assay: Growth inhibition of human NCI-H522 cells assessed as cell growth at 5X10'-8 M after 48 hrs by sulforhodamine B assay; details: NCI-H522, 48 h, read-out: Activity
SF-268 = assay: Growth inhibition of human SF268 cells assessed as cell growth at 5X10'-5 M after 48 hrs by sulforhodamine B assay; details: SF-268, 48 h, read-out: Activity
SF-295 [19] = assay: Growth inhibition of human SF295 cells assessed as cell growth at 5X10'-6 M after 48 hrs by sulforhodamine B assay; details: SF-295, 48 h, read-out: Activity

## COc1cc(-c2nn(-c3cccc(NC(=O)Nc4ccc(Cl)c(Cl)c4)c3)cc2-c2ccncc2)ccc1Cl
OVCAR-8
  growth at 0.5 µM: 73%
OVCAR-4 [1]
  growth at 50 µM: 5%
BT-549 [2]
  growth at 50 µM: -3%
UACC-62 [3]
  growth at 0.05 µM: 94%
NCI-H226
  growth at 50 µM: 4%
SF-295 [4]
  growth at 0.005 µM: 93%
UACC-62 [5]
  growth at 0.5 µM: 75%
MDA-MB-435 [6]
  growth at 0.5 µM: 84%
NCI-H460
  growth at 50 µM: 2%
SK-MEL-2 [7]
  growth at 50 µM: -59%
NCI-H23
  growth at 0.5 µM: 91%
HCT-116 [8]
  growth at 0.5 µM: 78%
SK-MEL-5
  growth at 50 µM: -90%
OVCAR-5
  growth at 5 µM: 27%
HCT-116 [9]
  growth at 5 µM: 6%
PC-3 [10]
  growth at 0.05 µM: 95%
CAKI-1
  growth at 0.5 µM: 84%
OVCAR-4 [11]
  growth at 0.005 µM: 96%
MDA-MB-435 [12]
  growth at 50 µM: -31%
T47D
  growth at 0.5 µM: 84%
SR
  growth at 50 µM: -26%
ACHN
  growth at 0.05 µM: 98%
M14
  growth at 50 µM: -52%
SK-MEL-2 [13]
  growth at 0.5 µM: 107%
HOP-62
  growth at 0.5 µM: 93%
K562
  growth at 5 µM: 5%
[14]
  growth at 0.005 µM: 99%
A498 [15]
  growth at 50 µM: -11%
PC-3 [16]
  growth at 0.005 µM: 99%
BT-549 [17]
  growth at 0.5 µM: 97%
SNB-75
  growth at 50 µM: -15%
SK-OV-3
  growth at 5 µM: 12%
A498 [18]
  growth at 5 µM: -3%
DU-145
  growth at 50 µM: -1%
NCI-H522
  growth at 0.05 µM: 101%
SF-268
  growth at 50 µM: -5%
SF-295 [19]
  growth at 5 µM: -26%
